US6355799B1, “Substituted benzene compounds, process for their preparation, and herbicidal and defoliant compositions containing them” (ISK Americas Incorporated, priority 1997, dated 2002)

Assays:
Format in all cases: in vivo
[1] = test system: johnsongrass (Sorghum halepense, SORHA); experiment: Post-emerge test, greenhouse herbicide activity screening; conditions: post-emerge, 14 days after application, rating scale 0-100
In short: (§1)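 Herbicidal damage is scored 0 (none) to 100 (complete plant death) two weeks after a simulated field spray. Rates span 15–1000 g ai/ha, delivered in acetone at 187 l/ha. For post-emergence treatments, plants have 2–3 leaves and the spray carries 0.25% v/v non-ionic surfactant.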

[2] = test system: green foxtail (Setaria viridis, SETVI); experiment: as above; conditions: post-emerge, 14 days after application, rating scale 0-100
In short: as §1

[3] = test system: sicklepod (Cassia obtusifolia, CASOB); experiment: as above; conditions: post-emerge, 14 days after application, rating scale 0-100
In short: as §1

[4] = test system: redroot pigweed (Amaranthus retroflexus, AMARE); experiment: as above; conditions: post-emerge, 14 days after application
In short: as §1

[5] = test system: ivyleaf morningglory (Ipomoea hederacea, IPOHE); experiment: as above; conditions: post-emerge, 14 days after application, rating scale 0-100
In short: as §1

[6] = test system: lambsquarters (Chenopodium album, CHEAL); experiment: as above; conditions: post-emerge, 14 days after application, rating scale 0-100
In short: as §1

[7] = test system: barnyardgrass (Echinochloa crus-galli, ECHCG); experiment: as above; conditions: post-emerge, 14 days after application, rating scale 0-100
In short: as §1

[8] = test system: large crabgrass (Digitaria sanguinalis, DIGSA); experiment: as above; conditions: post-emerge, 14 days after application, rating scale 0-100
In short: as §1

[9] = test system: velvetleaf (Abutilon theophrasti, ABUTH); experiment: as above; conditions: post-emerge, 14 days after application, rating scale 0-100
In short: as §1

[10] = test system: upland rice (Oryza sp., var. Tebonnet, RICE); experiment: Post-emerge test, crop safety; conditions: post-emerge, 14 days after application, rating scale 0-100
In short: (§2)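 Compounds in acetone were track-sprayed at 15-1000 g ai/ha (187 l/ha) on sandy loam pots: pre-emerge one day after seeding, post-emerge at 2-3 leaf stage with 0.25% v/v non-ionic surfactant. Phytotoxicity was rated 14 days later on a 0 (no damage) to 100 (complete death) scale.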

[11] = test system: field corn (Zea mays L., var. Dekalb 535, CORN); experiment: Post-emerge test, crop safety; conditions: post-emerge, 14 days after application, rating scale 0-100
In short: as §2

[12] = test system: upland rice (Oryza sp., var. Tebonnet, RICE); experiment: Pre-emerge test, crop safety; conditions: pre-emerge, 14 days after application, rating scale 0-100
In short: (§3)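 Visual ratings on a 0-100 scale (0 no damage, 100 all plants dead) were taken at 14 days after treatment. Rates of 15-1000 g ai/ha in acetone, 187 l/ha, were sprayed onto soil one day after planting (pre-emerge) or onto 2-3 leaf plants with 0.25% v/v surfactant (post-emerge).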

[13] = test system: field corn (Zea mays L., var. Dekalb 535, CORN); experiment: Pre-emerge test, crop safety; conditions: pre-emerge, 14 days after application, rating scale 0-100
In short: as §3

[14] = test system: johnsongrass (Sorghum halepense, SORHA); experiment: Pre-emerge test, greenhouse herbicide activity screening; conditions: pre-emerge, 14 days after application, rating scale 0-100
In short: as §2

[15] = test system: green foxtail (Setaria viridis, SETVI); experiment: as above; conditions: pre-emerge, 14 days after application, rating scale 0-100
In short: as §2

[16] = test system: sicklepod (Cassia obtusifolia, CASOB); experiment: as above; conditions: pre-emerge, 14 days after application, rating scale 0-100
In short: as §2

[17] = test system: ivyleaf morningglory (Ipomoea hederacea, IPOHE); experiment: as above; conditions: pre-emerge, 14 days after application, rating scale 0-100
In short: as §2

[18] = test system: common ragweed (Ambrosia artemisizfolia L., AMBEL); experiment: as above; conditions: pre-emerge, 14 days after application, rating scale 0-100
In short: as §2

[19] = test system: lambsquarters (Chenopodium album, CHEAL); experiment: as above; conditions: pre-emerge, 14 days after application, rating scale 0-100
In short: as §2

[20] = test system: barnyardgrass (Echinochloa crus-galli, ECHCG); experiment: as above; conditions: pre-emerge, 14 days after application, rating scale 0-100
In short: as §2

[21] = test system: large crabgrass (Digitaria sanguinalis, DIGSA); experiment: as above; conditions: pre-emerge, 14 days after application, rating scale 0-100
In short: as §2

[22] = test system: velvetleaf (Abutilon theophrasti, ABUTH); experiment: as above; conditions: pre-emerge, 14 days after application, rating scale 0-100
In short: as §2

[23] = test system: redroot pigweed (Amaranthus retroflexus, AMARE); experiment: as above; conditions: pre-emerge, 14 days after application, rating scale 0-100
In short: as §1

CCOC(=O)C(Cl)Cc1c(OC)c(Cl)cc(F)c1-n1nc(C(F)(F)F)n(C)c1=O (stereo not shown) [14-61]
Post-emerge Herbicidal Activity SORHA (phytotoxicity rating) ([1]; 63 g ai/ha): 0 | Post-emerge Herbicidal Activity SORHA (phytotoxicity rating) ([1]; 250 g ai/ha): 20 | Post-emerge Herbicidal Activity SETVI (phytotoxicity rating) ([2]; 63 g ai/ha): 0 | Post-emerge Herbicidal Activity SETVI (phytotoxicity rating) ([2]; 250 g ai/ha): 20 | Post-emerge Herbicidal Activity CASOB (phytotoxicity rating) ([3]; 63 g ai/ha): 0 | Post-emerge Herbicidal Activity CASOB (phytotoxicity rating) ([3]; 250 g ai/ha): 30 | Post-emerge Herbicidal Activity AMARE (phytotoxicity rating) ([4]; 63 g ai/ha, rating scale 0-100 (0 no damage, 100 complete death)): 20 | Post-emerge Herbicidal Activity AMARE (phytotoxicity rating) ([4]; 250 g ai/ha, rating scale 0-100): 60 | Post-emerge Herbicidal Activity IPOHE (phytotoxicity rating) ([5]; 63 g ai/ha): 20 | Post-emerge Herbicidal Activity IPOHE (phytotoxicity rating) ([5]; 250 g ai/ha): 50 | Post-emerge Herbicidal Activity CHEAL (phytotoxicity rating) ([6]; 63 g ai/ha): 40 | Post-emerge Herbicidal Activity CHEAL (phytotoxicity rating) ([6]; 250 g ai/ha): 75 | Post-emerge Herbicidal Activity ECHCG (phytotoxicity rating) ([7]; 63 g ai/ha): 0 | Post-emerge Herbicidal Activity ECHCG (phytotoxicity rating) ([7]; 250 g ai/ha): 60 | Post-emerge Herbicidal Activity DIGSA (phytotoxicity rating) ([8]; 63 g ai/ha): 0 | Post-emerge Herbicidal Activity DIGSA (phytotoxicity rating) ([8]; 250 g ai/ha): 70 | Post-emerge Herbicidal Activity ABUTH (phytotoxicity rating) ([9]; 63 g ai/ha): 30 | Post-emerge Herbicidal Activity ABUTH (phytotoxicity rating) ([9]; 250 g ai/ha): 60 | Post-emerge Herbicidal Activity RICE (crop damage rating) ([10]; 63 g ai/ha): 0 | Post-emerge Herbicidal Activity RICE (crop damage rating) ([10]; 250 g ai/ha): 30 | Post-emerge Herbicidal Activity CORN (crop damage rating) ([11]; 63 g ai/ha): 0 | Post-emerge Herbicidal Activity CORN (crop damage rating) ([11]; 250 g ai/ha): 70 | phytotoxicity rating RICE ([12]; 63 g ai/ha): 0 | phytotoxicity rating RICE ([12]; 250 g ai/ha): 0 | phytotoxicity rating CORN ([13]; 63 g ai/ha): 0 | phytotoxicity rating CORN ([13]; 250 g ai/ha): 0 | phytotoxicity rating SORHA ([14]; 63 g ai/ha): 0 | phytotoxicity rating SORHA ([14]; 250 g ai/ha): 20 | phytotoxicity rating SETVI ([15]; 63 g ai/ha): 0 | phytotoxicity rating SETVI ([15]; 250 g ai/ha): 60 | phytotoxicity rating CASOB ([16]; 63 g ai/ha): 0 | phytotoxicity rating CASOB ([16]; 250 g ai/ha): 0 | phytotoxicity rating IPOHE ([17]; 63 g ai/ha): 0 | phytotoxicity rating IPOHE ([17]; 250 g ai/ha): 20 | phytotoxicity rating AMBEL ([18]; 63 g ai/ha): 0 | phytotoxicity rating AMBEL ([18]; 250 g ai/ha): 0 | phytotoxicity rating CHEAL ([19]; 63 g ai/ha): 0 | phytotoxicity rating CHEAL ([19]; 250 g ai/ha): 80 | phytotoxicity rating ECHCG ([20]; 63 g ai/ha): 0 | phytotoxicity rating ECHCG ([20]; 250 g ai/ha): 0 | phytotoxicity rating DIGSA ([21]; 63 g ai/ha): 0 | phytotoxicity rating DIGSA ([21]; 250 g ai/ha): 40 | phytotoxicity rating ABUTH ([22]; 63 g ai/ha): 0 | phytotoxicity rating ABUTH ([22]; 250 g ai/ha): 40 | phytotoxicity rating AMARE ([23]; 63 g ai/ha): 30 | phytotoxicity rating AMARE ([23]; 250 g ai/ha): 95
